Data from PMC6018746, “Activation of the p53-MDM4 regulatory axis defines the anti-tumour response to PRMT5 inhibition through its role in regulating cellular splicing” (Scientific Reports, 2018).

System: p53 mutant MCL xenograft model, REC-1
Assay: REC-1 xenograft efficacy
Type: in vivo, mouse
Details: 100 mg/kg BID
Source text: We also observed an increase in the expression of p53 target genes including p21/CDKN1 (Supplementary Figure S7B), confirming induction of p53 activity.

CC(=O)N1CCC(Nc2cc(C(=O)NC[C@H](O)CN3CCc4ccccc4C3)ncn2)CC1 [GSK3326595]
TGI: 55%
